Results as given in patent US11504358B2, “Extended release methazolamide formulation” (Effcon Laboratories, Inc., priority 2017, dated 2022).

Assays:
[1] = Methazolamide particle size testing, laser particle size analyzer; format: physicochemical; conditions: particles milled in-house
Procedure: The following conventions apply when describing particle size distribution. D(v, 0.1) means that 10% of the particles are smaller than this diameter. D(v, 0.5) is the median particle diameter. D(v, 0.9) means that 90% of the particles are smaller than this diameter.
Methazolamide particle size testing was performed on unmilled methazolamide particles and methazolamide particles milled in-house and by a third party vendor according to the above milling procedure. Methazolamide particle size testing was conducted using a Mastersizer laser particle size analyzer from Malvern Instruments or a sonic shifter. The results of the particle size testing for methazolamide particles milled in-house, as measured by a laser particle size analyzer, are as follows: […]

[2] = in water, alcohol and acetone; cited from earlier work
[3] = Methazolamide particle size testing, sonic shifter (sieves); format: physicochemical
Procedure: Methazolamide particle size testing was performed on unmilled methazolamide particles and methazolamide particles milled in-house and by a third party vendor according to the above milling procedure. Methazolamide particle size testing was conducted using a Mastersizer laser particle size analyzer from Malvern Instruments or a sonic shifter. The results of the particle size testing for methazolamide particles milled in-house, as measured by a laser particle size analyzer, are as follows:
The results of the particle size testing for unmilled methazolamide particles, methazolamide particles milled in-house, and methazolamide particles milled by a third party vendor, as measured by a sonic shifter, are as follows: […]

[4] = Density of methazolamide particles; format: physicochemical

Row | Compound | D(v, 0.1) [1] | D(v, 0.5) [1] | D(v, 0.9) [1] | Solubility [2] | % Retained, Fines Collector [3] | % Retained, Sieve # 20 (840 μm) [3] | % Retained, Sieve # 40 (420 μm) [3] | % Retained, Sieve # 80 (177 μm) [3] | % Retained, Sieve # 100 (149 μm) [3] | % Retained, Sieve # 140 (105 μm) [3] | % Retained, Sieve # 200 (74 μm) [3] | Bulk Density [4] | Trapped Density [4]
1 | CC(=O)/N=c1/sc(S(N)(=O)=O)nn1C [Sample 3] | 48.42 μm | 128.46 μm | 267.26 μm |  |  |  |  |  |  |  |  |  | 
2 | CC(=O)/N=c1/sc(S(N)(=O)=O)nn1C [Sample 2] | 47.67 μm | 132.34 μm | 269.30 μm |  |  |  |  |  |  |  |  |  | 
3 | CC(=O)N=c1sc(S(N)(=O)=O)nn1C [Methazolamide, N-[5-(aminosulfonyl)-3-methyl-1,3,4-thiadiazol-2(3H)-ylidene]acetamide] |  |  |  | slightly soluble |  |  |  |  |  |  |  |  | 
4 | CC(=O)/N=c1/sc(S(N)(=O)=O)nn1C [Unmilled API] |  |  |  |  | 0.83% | 0.09% | 7.95% | 75.05% | 8.04% | 6.01% | 2.03% | 0.92 g/mL | 1.03 g/mL
5 | CC(=O)/N=c1/sc(S(N)(=O)=O)nn1C [Sample 1] | 42.15 μm | 121.45 μm | 255.75 μm |  |  |  |  |  |  |  |  |  | 
6 | CC(=O)/N=c1/sc(S(N)(=O)=O)nn1C [Milled API (in-house)] |  |  |  |  | 16.51% | 1.23% | 1.52% | 15.27% | 19.54% | 32.92% | 13.00% | 0.56 g/mL | 0.99 g/mL
7 | CC(=O)/N=c1/sc(S(N)(=O)=O)nn1C [Milled API (3rd party)] |  |  |  |  | 15.56% | 5.15% | 6.14% | 21.88% | 17.14% | 21.90% | 12.29% | 0.53 g/mL | 1.00 g/mL
